Bridge positions count the residues as written; N and C are the ends. Square brackets hold non-standard residues; d marks the D form. Peptide text beside a SMILES is read from it. Dab = NCC[C@H](N)C(=O)O
Key:
[1] = system: Klebsiella pneumoniae (Kp) MDR and clinical isolates; test: Susceptibility testing (MIC, CLSI M7-A10) of antibiotics with SPR741; format: cell-based; details: for order of potentiation of the antibiotics by SPR741: 25 Kp isolates, Mueller-Hinton broth-II with 0, 2 or 8 μg/mL SPR741
Method: (§1) Assays were performed against 25 Escherichia coli (Ec), 25 Klebsiella pneumoniae (Kp), and 17 Acinetobacter baumannii (Ab) MDR and clinical isolates, in Mueller-Hinton broth-II (cation adjusted) containing 0, 2 or 8 μg/mL SPR741. The minimum inhibitory concentration (MIC) was defined as the lowest concentration of antibiotic required to inhibit visible bacterial growth. MIC values were determined for each antibiotic/SPR741 combination and maximum reductions in MIC of the antibiotic in the combination were determined.

[2] = system: Acinetobacter baumannii (Ab) MDR and clinical isolates; test: as above; format: cell-based; details: for order of potentiation of the antibiotics by SPR741: 17 Ab isolates, Mueller-Hinton broth-II with 0, 2 or 8 μg/mL SPR741
Method: as §1

[3] = system: Escherichia coli (Ec) MDR and clinical isolates; test: as above; format: cell-based; details: for order of potentiation of the antibiotics by SPR741: 25 Ec isolates, Mueller-Hinton broth-II with 0, 2 or 8 μg/mL SPR741
Method: as §1

[4] = Minimum bactericidal concentration of combinations in the presence of 5% surfactant (Survanta); format: cell-based; details: in combination with SPR741; with or without 5% Survanta
Method: (§2) Efficacy was assessed in checkerboard assays. The minimum inhibitory concentration (MIC) of SPR741, antibiotics, and combinations thereof was defined as the lowest concentration that inhibited growth of Ec ATCC 25922, Ab NCTC 12156 and Kp ATCC 43816. Ec BW25113, ΔtolC and ΔacrA were used to assess the contribution of the multi drug efflux pump AcrAB-TolC to susceptibility to the combinations. Interactions were assessed by calculating fractional inhibitory concentration indices (FICI) for each combination in which the MIC differed from compounds in isolation. Interactions were defined as: FICI>4, antagonism; 0.5-4, no interaction; <0.5, synergy. The minimum bactericidal concentration of combinations in the presence of 5% surfactant (Survanta) was also determined.

Gram negative bacteria = details: previously shown; cited from earlier work
[5] = system: Ec BW25113, ΔtolC and ΔacrA; test: Contribution of efflux pump AcrAB-TolC to susceptibility to the combinations; format: cell-based, Escherichia coli
Method: as §2

[6] = Kp isolates, in combination with SPR741

Row | Structure (SMILES) | order of potentiation of the antibiotics by SPR741 [1] | order of potentiation of the antibiotics by SPR741 [2] | order of potentiation of the antibiotics by SPR741 [3] | other results
1 | CC[C@H]1OC(=O)[C@H](C)[C@@H](O[C@H]2C[C@@](C)(OC)[C@@H](O)[C@H](C)O2)[C@H](C)[C@@H](O[C@@H]2O[C@H](C)C[C@H](N(C)C)[C@H]2O)[C@](C)(O)C[C@@H](C)CN(C)[C@H](C)[C@@H](O)[C@]1(C)O [AZ, azithromycin] | RET>RIF=AZ=CLR>MUP>MEM=FA>AZT | FA>RIF>CLR>RET>MEM>AZ>AZT>MUP | RIF>MUP=FA>AZ=RET>AZT>MEM=CLR | 
2 | C[C@H]1[C@H](NC(=O)/C(=N\OC(C)(C)C(=O)O)c2csc(N)n2)C(=O)N1S(=O)(=O)O [AZT, aztreonam] |  | FA>RIF>CLR>RET>MEM>AZ>AZT>MUP | RIF>MUP=FA>AZ=RET>AZT>MEM=CLR | 
3 | CC[C@H]1OC(=O)[C@H](C)[C@@H](O[C@H]2C[C@@](C)(OC)[C@@H](O)[C@H](C)O2)[C@H](C)[C@@H](O[C@@H]2O[C@H](C)C[C@H](N(C)C)[C@H]2O)[C@](C)(OC)C[C@@H](C)C(=O)[C@H](C)[C@@H](O)[C@]1(C)O [CLR, clarithromycin] | RET>RIF=AZ=CLR>MUP>MEM=FA>AZT | FA>RIF>CLR>RET>MEM>AZ>AZT>MUP | RIF>MUP=FA>AZ=RET>AZT>MEM=CLR | bactericidal activity (minimum bactericidal concentration) of the combination [4]: bactericidal at concentrations similar to the MIC irrespective of the presence of Survanta
4 | CC(=O)O[C@H]1C[C@@]2(C)[C@@H](C[C@@H](O)[C@H]3[C@@]4(C)CC[C@@H](O)[C@@H](C)[C@@H]4CC[C@@]32C)/C1=C(\CCC=C(C)C)C(=O)O [FA, fusidic acid] | RET>RIF=AZ=CLR>MUP>MEM=FA>AZT | FA>RIF>CLR>RET>MEM>AZ>AZT>MUP | RIF>MUP=FA>AZ=RET>AZT>MEM=CLR | 
5 | C[C@@H](O)[C@H]1C(=O)N2C(C(=O)O)=C(S[C@@H]3CN[C@H](C(=O)N(C)C)C3)[C@H](C)[C@H]12 [MEM, meropenem] | RET>RIF=AZ=CLR>MUP>MEM=FA>AZT | FA>RIF>CLR>RET>MEM>AZ>AZT>MUP | RIF>MUP=FA>AZ=RET>AZT>MEM=CLR | 
6 | C/C(=C\C(=O)OCCCCCCCCC(=O)O)C[C@@H]1OC[C@H](C[C@@H]2O[C@H]2[C@@H](C)[C@H](C)O)[C@@H](O)[C@H]1O [MUP, mupirocin] | RET>RIF=AZ=CLR>MUP>MEM=FA>AZT | FA>RIF>CLR>RET>MEM>AZ>AZT>MUP | RIF>MUP=FA>AZ=RET>AZT>MEM=CLR | 
7 | C=C[C@]1(C)C[C@@H](OC(=O)CS[C@@H]2C[C@H]3CC[C@@H](C2)N3C)[C@]2(C)[C@H](C)CC[C@]3(CCC(=O)[C@H]32)[C@@H](C)[C@@H]1O [RET, retapamulin] | RET>RIF=AZ=CLR>MUP>MEM=FA>AZT | FA>RIF>CLR>RET>MEM>AZ>AZT>MUP | RIF>MUP=FA>AZ=RET>AZT>MEM=CLR | MIC of antibiotic in the combination [1, 6]: 4 µg/mL; MIC reduction [1, 6]: 32 fold; MIC of antibiotic alone ([1]; Kp isolates, without SPR741): 128 µg/mL
8 | CO[C@H]1/C=C/O[C@@]2(C)Oc3c(C)c(O)c4c(O)c(c(/C=N/N5CCN(C)CC5)c(O)c4c3C2=O)NC(=O)/C(C)=C\C=C\[C@H](C)[C@H](O)[C@@H](C)[C@@H](O)[C@@H](C)[C@H](OC(C)=O)[C@@H]1C [RIF, rifampicin] |  |  |  | maximum MIC reduction ([3]; Ec isolates, in combination with SPR741): > 2000 fold; MIC of antibiotic alone ([3]; Ec isolates, without SPR741): > 128 µg/mL
9 | CC(=O)N[C@H](C(=O)N[C@H](CO)C(=O)N[C@H]1CCNC(=O)[C@H]([C@@H](C)O)NC(=O)[C@H](CCN)NC(=O)[C@H](CCN)NC(=O)[C@H](CC(C)C)NC(=O)[C@@H](Cc2ccccc2)NC(=O)[C@H](CCN)NC1=O)[C@@H](C)O [SPR741, Acetyl-Thr-dSer-cy[Dab-Dab-dPhe-Leu-Dab-Dab-Thr]] (Ac-T[dS][Dab][Dab][dF]L[Dab][Dab]T; lactam 3-C) |  |  |  | sensitisation of bacteria to antibiotics (Gram negative bacteria): increase the sensitivity of certain bacteria to Mupirocin, Azithromycin, Fusidic Acid, and Vancomycin; potentiation of antibiotics that are AcrAB-TolC substrates [5]: able to potentiate antibiotics that are substrates of AcrAB-TolC; effect of SPR741 on MIC of antibiotics ([1]; MDR isolates of Kp): effectively reduced the MIC of currently utilized antibiotics; effect of SPR741 on MIC of antibiotics ([2]; MDR isolates of Ab): effectively reduced the MIC of currently utilized antibiotics; effect of SPR741 on MIC of antibiotics ([3]; MDR isolates of Ec): effectively reduced the MIC of currently utilized antibiotics

Source: patent US20190209645A1, “POTENTIATION OF ANTIBIOTIC ACTIVITY BY A NOVEL CATIONIC PEPTIDE, SPR741” (priority 2016, published 2019)
